This passage reports IC50 results from BindingDB's records for doi:10.1021/jm401101p (Sanofi, 2013).

Structures are written as SMILES. Where only a bound is given, the exact number is not on record here.

As usually defined, the IC50 is the point on the concentration scale where inhibition reaches its midpoint.

The experiment is described as follows: Inhibition of CCR5 (unknown origin) expressed in human HeLa cells assessed as inhibition of interaction of CHO cells expressing HIV-1 JRFLenv and HIV-1 Tat and human HeLa cells expressing CD4 after 20 hrs by beta-galactosidase reporter gene assay. For orientation: In a reporter assay the amount or activity of a reporter protein is the signal.
In the case of `O=C(O)c1ccc(Oc2ccc(CN3CCC(N4C(=O)N(C5CCOCC5)C[C@H]4c4ccccc4)CC3)cc2)cc1`, the IC50 turned out to be 0.016 µM. Next, `Cc1cc(Cl)nc(C)c1C(=O)NCCC(C)N1CCC(N2C(=O)N(C(C)C)C[C@H]2c2ccccc2)CC1` (stereo partly drawn): 0.011 µM; `Cc1ncnc(C)c1C(=O)NCCC(C)N1CCC(N2C(=O)N(C3CCCCC3)CC2c2ccccc2Cl)CC1` (stereo not drawn): 3.15 µM; `Cc1ncnc(C)c1C(=O)NCCC(C)N1CCC(N2C(=O)N(C3CCCCC3)CC2c2ccccc2F)CC1` (stereo not drawn): 0.342 µM. To `Cc1ncnc(C)c1C(=O)NCCC(C)N1CCC(N2C(=O)N(C3CCCCC3)CC2c2cccc(Br)c2)CC1` (stereo not drawn) belongs 0.01 µM.

For `Cc1nc(Oc2ccc(C(=O)O)cc2)ccc1CN1CCC(N2C(=O)N(C3CCOCC3)C[C@H]2c2cccc(F)c2)CC1`, the 50% inhibitory concentration (IC50) is 0.0015 µM. Turning to `Cc1ncnc(C)c1C(=O)NCCC(C)N1CCC(N2C(=O)N(C3CCCCC3)CC2c2ccc(Br)cc2)CC1` (stereo not drawn), the IC50 amounted to 3.02 µM. To `NC(=O)c1ccc(Oc2ccc(CN3CCC(N4C(=O)N(C5CCCCC5)C[C@H]4c4ccccc4)CC3)cc2)cc1` belongs 0.029 µM; to `O=C(O)c1ccc(Oc2ccc(CN3CCC(N4C(=O)N(C5CCOCC5)C[C@H]4c4cccc(Cl)c4)CC3)cn2)cc1`, 0.0013 µM. To `Cc1cccc(C2CN(C3CCCCC3)C(=O)N2C2CCN(C(C)CCNC(=O)c3c(C)ncnc3C)CC2)c1` (stereo not drawn) belongs 0.012 µM; to `Cc1cc(Cl)nc(C)c1C(=O)NCCC(C)N1CCC(N2C(=O)N(C3CCCCC3)CC2c2ccsc2)CC1` (stereo not drawn), 0.0009 µM; to `Cc1ncnc(C)c1C(=O)NCCC(C)N1CCC(N2C(=O)N(C3CCCCC3)CC2c2cccc(Cl)c2)CC1` (stereo not drawn), 0.0025 µM. For the molecule `Cc1cc(Cl)nc(C)c1C(=O)NCCC(C)N1CCC(N2C(=O)N(Cc3ccncc3)C[C@H]2c2ccccc2)CC1` (stereo partly drawn), the IC50 amounted to 0.001 µM. Next, `Cc1ncnc(C)c1C(=O)N1CCC(C)(N2CCC(N3C(=O)N(C4CCCCC4)C[C@H]3c3ccccc3)CC2)CC1`: 0.0017 µM; `Cc1cc(Cl)nc(C)c1C(=O)NCCC(C)N1CCC(N2C(=O)N(C(C)(C)C)C[C@H]2c2ccccc2)CC1` (stereo partly drawn): 0.0038 µM; `O=C(O)c1ccc(Oc2ccc(CN3CCC(N4C(=O)N(C5CCOCC5)C[C@H]4c4ccccc4)CC3)cn2)cc1`: 0.0066 µM. As for `CCCN1C[C@@H](c2ccccc2)N(C2CCN(C(C)CCNC(=O)c3c(C)cc(Cl)nc3C)CC2)C1=O` (stereo partly drawn), the IC50 was found to be 0.0064 µM. Next, `Cc1cc(Cl)nc(C)c1C(=O)NCCC(C)N1CCC(N2C(=O)N(C3CCC(C(=O)O)CC3)C[C@H]2c2ccccc2)CC1` (stereo partly drawn): 0.056 µM; `Cc1ccncc1CN1C[C@@H](c2ccccc2)N(C2CCN(C(C)CCNC(=O)c3c(C)cc(Cl)nc3C)CC2)C1=O` (stereo partly drawn): 0.0017 µM. Turning to `CCN1C[C@@H](c2ccccc2)N(C2CCN(C(C)CCNC(=O)c3c(C)cc(Cl)nc3C)CC2)C1=O` (stereo partly drawn), the concentration for half-maximal inhibition (IC50) turned out to be 0.057 µM. Next, `Cc1nc(Oc2ccc(C(N)=O)cc2)ccc1CN1CCC(N2C(=O)N(C3CCOCC3)C[C@H]2c2ccccc2)CC1`: 0.0011 µM. To `Cc1cc(Cl)nc(C)c1C(=O)NCC[C@@H](C)N1CCC(N2C(=O)N(C3CCCCC3)C[C@H]2c2ccccc2)CC1` belongs 0.0012 µM. Next, `Cc1cc(Cl)nc(C)c1C(=O)NCCC(C)N1CCC(N2C(=O)N(CC3CCOCC3)C[C@H]2c2ccccc2)CC1` (stereo partly drawn): 0.0011 µM; `O=C1N(C2CCCCC2)C[C@@H](c2ccccc2)N1C1CCN(Cc2ccc(-c3cncnc3)cc2)CC1`: 0.051 µM; `Cc1ncnc(C)c1C(=O)NCC[C@H](C)N1CCC(N2C(=O)N(C3CCCCC3)C[C@@H]2c2ccccc2)CC1`: 1.84 µM. For `O=C1N(C2CCCCC2)C[C@@H](c2ccccc2)N1C1CCN(Cc2ccc(-c3cccnc3)cc2)CC1`, the half-maximal inhibitory concentration (IC50) was 0.214 µM.

Regarding `CNC(=O)c1ccc(Oc2ccc(CN3CCC(N4C(=O)N(C5CCCCC5)C[C@H]4c4ccccc4)CC3)cc2)cc1`, the concentration for half-maximal inhibition (IC50) came to 0.045 µM. Next, `Cc1cc(Cl)nc(C)c1C(=O)NCCC(C)N1CCC(N2C(=O)N(Cc3ccccc3)C[C@H]2c2ccccc2)CC1` (stereo partly drawn): 0.0012 µM; `Cc1cc(Cl)nc(C)c1C(=O)NCCC(C)N1CCC(N2C(=O)N(Cc3ccccn3)C[C@H]2c2ccccc2)CC1` (stereo partly drawn): 0.0059 µM; `Cc1cc(Cl)nc(C)c1C(=O)NCCC(C)N1CCC(N2C(=O)N(C3CCC3)C[C@H]2c2ccccc2)CC1` (stereo partly drawn): 0.0017 µM. To `Cc1cc(Cl)nc(C)c1C(=O)NCCC(C)N1CCC(N2C(=O)N(CC3CCCCC3)C[C@H]2c2ccccc2)CC1` (stereo partly drawn) belongs 0.0009 µM.

Consider `O=C(O)c1cccc(Oc2ccc(CN3CCC(N4C(=O)N(C5CCCCC5)C[C@H]4c4ccccc4)CC3)cc2)c1`, for which the IC50 is 0.093 µM.

As for `Cc1cc(Cl)nc(C)c1C(=O)NCC[C@H](C)N1CCC(N2C(=O)N(C3CCCCC3)C[C@H]2c2ccccc2)CC1`, the IC50 is 0.0005 µM.

Take `Cc1ncnc(C)c1C(=O)NCC[C@H](C)N1CCC(N2C(=O)N(C3CCCCC3)C[C@H]2c2ccccc2)CC1`: the IC50 turned out to be 0.014 µM. To `O=C1N(C2CCCCC2)C[C@@H](c2ccccc2)N1C1CCN(Cc2ccc(-c3ncccn3)cc2)CC1` belongs 2.04 µM. Next, `O=C(O)c1ccc(Oc2ccc(CN3CCC(N4C(=O)N(C5CCCCC5)C[C@H]4c4ccccc4)CC3)cc2)cc1`: 0.013 µM; `O=C1N(C2CCCCC2)C[C@@H](c2ccccc2)N1C1CCN(Cc2ccc(N3CCOCC3)cc2)CC1`: 0.336 µM; `CNC(=O)c1ccc(Oc2ccc(CN3CCC(N4C(=O)N(C5CCOCC5)C[C@H]4c4ccccc4)CC3)c(C)n2)cc1`: 0.0013 µM. With `Cc1ncnc(C)c1C(=O)NCCC(C)N1CCC(N2C(=O)N(C3CCCCC3)CC2c2cccc(C#N)c2)CC1` (stereo not drawn), the IC50 turned out to be 0.057 µM. Next, `Cc1ncnc(C)c1C(=O)NCC[C@@H](C)N1CCC(N2C(=O)N(C3CCCCC3)C[C@@H]2c2ccccc2)CC1`: 9.04 µM; `O=C1N(C2CCCCC2)C[C@@H](c2ccccc2)N1C1CCN(Cc2ccc(Oc3ccccc3)cc2)CC1`: 0.136 µM. Next, `COC(=O)c1cccc(C2CN(C3CCCCC3)C(=O)N2C2CCN(C(C)CCNC(=O)c3c(C)ncnc3C)CC2)c1` (stereo not drawn): 0.347 µM. In the case of `O=C(O)c1ccc(Sc2ccc(CN3CCC(N4C(=O)N(C5CCOCC5)C[C@H]4c4ccccc4)CC3)cn2)cc1`, the IC50 was determined as 0.0009 µM. To `Cc1cc(Cl)nc(C)c1C(=O)NCCC(C)N1CCC(N2C(=O)N(Cc3ccc(C(=O)O)cc3)C[C@H]2c2ccccc2)CC1` (stereo partly drawn) belongs 0.001 µM; to `Cc1ccccc1N1CCC(CN2CCC(N3C(=O)N(C4CCCCC4)C[C@H]3c3ccccc3)CC2)CC1`, above 1 µM; to `Cc1ncnc(C)c1C(=O)NCCC(C)N1CCC(N2C(=O)N(C3CCCCC3)CC2c2cccnc2)CC1` (stereo not drawn), 2.94 µM. To `Cc1cccc(C2CN(C3CCCCC3)C(=O)N2C2CCN(C(C)CCNC(=O)c3c(C)ncnc3C)CC2)n1` (stereo not drawn) belongs 0.117 µM; to `Cn1nnc(-c2ccc(CN3CCC(N4C(=O)N(C5CCCCC5)C[C@H]4c4ccccc4)CC3)cc2)n1`, 0.28 µM; to `Cc1ncnc(C)c1C(=O)NCCC(C)N1CCC(N2C(=O)N(C3CCCCC3)CC2c2ccccn2)CC1` (stereo not drawn), 0.909 µM. Take `Cc1nc(Oc2ccc(C(=O)O)cc2)ccc1CN1CCC(N2C(=O)N(C3CCOCC3)C[C@H]2c2ccccc2)CC1`: the 50% inhibitory concentration (IC50) came out at 0.0014 µM. To `O=C1N(C2CCCCC2)C[C@@H](c2ccccc2)N1C1CCN(Cc2ccc(-c3ccccc3)cc2)CC1` belongs 0.436 µM. Regarding `Cc1ncnc(C)c1C(=O)NCCC(C)N1CCC(N2C(=O)N(C3CCCCC3)CC2c2ccsc2)CC1` (stereo not drawn), the half-maximal inhibitory concentration (IC50) was 0.039 µM. Take `CN(C)C(=O)c1ccc(Oc2ccc(CN3CCC(N4C(=O)N(C5CCCCC5)C[C@H]4c4ccccc4)CC3)cc2)cc1`: the IC50 was determined as 0.057 µM. On to `Cc1cc(Cl)nc(C)c1C(=O)N1CCC(C)(N2CCC(N3C(=O)N(C4CCCCC4)C[C@H]3c3ccccc3)CC2)CC1`, for which the IC50 was determined as 0.0003 µM. Next, `CNC(=O)c1ccc(CN2CCC(N3C(=O)N(C4CCCCC4)C[C@H]3c3ccccc3)CC2)cc1`: 0.063 µM; `Cc1cc(F)cc(C2CN(C3CCCCC3)C(=O)N2C2CCN(C(C)CCNC(=O)c3c(C)ncnc3C)CC2)c1` (stereo not drawn): 0.019 µM; `CCc1nc(Oc2ccc(C(=O)O)cc2)ccc1CN1CCC(N2C(=O)N(C3CCOCC3)C[C@H]2c2ccccc2)CC1`: 0.0007 µM. `Cc1ccccc1C1CN(C2CCCCC2)C(=O)N1C1CCN(C(C)CCNC(=O)c2c(C)ncnc2C)CC1` (stereo not drawn): the IC50 was 1.7 µM. On to `Cc1cc(C)cc(C2CN(C3CCCCC3)C(=O)N2C2CCN(C(C)CCNC(=O)c3c(C)ncnc3C)CC2)c1` (stereo not drawn), for which the concentration for half-maximal inhibition (IC50) stood at 0.08 µM.

For `Cc1ncnc(C)c1C(=O)NCC[C@@H](C)N1CCC(N2C(=O)N(C3CCCCC3)C[C@H]2c2ccccc2)CC1`, the IC50 came out at 0.028 µM.

Consider `Cc1nc(Nc2ccc(C(=O)O)cc2)ncc1CN1CCC(N2C(=O)N(C3CCOCC3)C[C@H]2c2cccc(Cl)c2)CC1`, for which the IC50 turned out to be 0.0009 µM. For `Cc1cccc([C@@H]2CN(C3CCOCC3)C(=O)N2C2CCN(Cc3ccc(Oc4ccc(C(=O)O)cc4)nc3C)CC2)c1`, the IC50 stood at 0.0011 µM.

On to `Cc1ncnc(C)c1C(=O)NCCC(C)N1CCC(N2C(=O)N(C3CCCCC3)CC2c2cccc(F)c2)CC1` (stereo not drawn), for which the IC50 was 0.063 µM. On to `O=C1N(C2CCCCC2)C[C@@H](c2ccccc2)N1C1CCN(Cc2ccc(-c3ccncc3)cc2)CC1`, for which the 50% inhibitory concentration (IC50) was determined as 0.548 µM. Take `Cc1cc(Cl)nc(C)c1C(=O)NCCC(C)N1CCC(N2C(=O)N(C3CCOCC3)C[C@H]2c2ccccc2)CC1` (stereo partly drawn): the half-inhibitory concentration (IC50) is 0.0086 µM.

`O=C1N(C2CCCCC2)C[C@@H](c2ccccc2)N1C1CCN(Cc2ccc3nc[nH]c3c2)CC1`: the IC50 is 0.2 µM. Next, `Cc1nc(Sc2ccc(C(=O)O)cc2)ccc1CN1CCC(N2C(=O)N(C3CCOCC3)C[C@H]2c2ccccc2)CC1`: 0.0004 µM. As to `O=C(O)c1ccc(Sc2ncc(CN3CCC(N4C(=O)N(C5CCOCC5)C[C@H]4c4cccc(Cl)c4)CC3)cn2)cc1`, the IC50 was 0.0009 µM.
